# From patent publication US11932636B2, “RAD51 inhibitors” (Cyteir Therapeutics, Inc., priority 2019, dated 2024)
# Read-outs that look alike come from different tables or passages of the source.
# Tested on: Daudi cells (AID positive)
# Test: Compound primary screening: cell death in AID positive Daudi cells (Cell-Titer Glo, Day 7)
# Type: cell-based
# Conditions: Homo sapiens, 168 h, read-out: Cellular activity in AID + (Daudi)
# Method in brief: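 AID-positive Daudi cells were seeded at 1250 cells per well and treated with serially diluted compound delivered from a DMSO/media master plate. Cultures were incubated at 37 °C, and cell death was measured on Day 7 with Cell-Titer Glo luminescence.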
# [1] = Daudi cells, AID positive, cell death on Day 7, Cell-Titer Glo
SMILES,EC50 [1],EC50 (Daudi)
"CCNS(=O)(=O)c1cc(Nc2ccc(C(C)C)cn2)ccc1-c1cnc([C@H]2CC[C@H](NC(=O)OC(C)C)CC2)s1 [Compound 113, isopropyl trans-N-[4-[5-[2-(ethylsulfamoyl)-4-[(5-isopropyl-2-pyridyl)amino]phenyl]thiazol-2-yl]cyclohexyl]carbamate]",< 100 nM,–
"CCNS(=O)(=O)c1cc(N2CC(OC(C)C)C2)ccc1-c1cnc([C@H]2CC[C@H](NC(=O)OC(C)C)CC2)s1 [Compound 114, isopropyl trans-N-[4-[5-[2-(ethylsulfamoyl)-4-[3-isopropoxyazetidin-1-yl]phenyl]thiazol-2-yl]cyclohexyl]carbamate]",100 to 1000 nM,–
"CCNS(=O)(=O)c1cc(Nc2nnc(C(C)C)s2)ccc1-c1cnc(C2CCC(NC(=O)OC(C)C)CC2)s1 (stereo not drawn) [Compound 115, isopropyl trans-N-[4-[5-[2-(ethylsulfamoyl)-4-[(5-isopropyl-1,3,4-thiadiazol-2-y)amino]phenyl]thiazol-2-yl]cyclohexyl]carbamate]",< 100 nM,–
"CCNS(=O)(=O)c1cc(NC2(C)COC2)ccc1-c1cnc([C@H]2CC[C@H](NC(=O)OC(C)C)CC2)s1 [Compound 116, isopropyl trans-N-[4-[5-[2-(ethylsulfamoyl)-4-[(3-methyloxetan-3-yl)amino]phenyl]thiazol-2-yl]cyclohexyl]carbamate]",< 100 nM,–
"CCNS(=O)(=O)c1cc(N(C)c2nccn2C)ccc1-c1cnc([C@H]2CC[C@H](NC(=O)OC(C)C)CC2)s1 [Compound 117, isopropyl trans-N-[4-[5-[2-(ethylsulfamoyl)-4-[methyl(1-methyl-1H-imidazol-2-yl)amino]phenyl]thiazol-2-yl]cyclohexyl]carbamate]",100 to 1000 nM,–
"CCNS(=O)(=O)c1cc(Nc2nnco2)ccc1-c1cnc([C@H]2CC[C@H](NC(=O)OC(C)C)CC2)s1 [Compound 118, isopropyl trans-N-[4-[5-[2-(ethylsulfamoyl)-4-[(1,3,4-oxadiazol-2-yl)amino]phenyl]thiazol-2-yl]cyclohexyl]carbamate]",100 to 1000 nM,–
"CCNS(=O)(=O)c1cc(Nc2nncs2)ccc1-c1cnc([C@H]2CC[C@H](NC(=O)OC(C)C)CC2)s1 [Compound 119, isopropyl trans-N-[4-[5-[2-(ethylsulfamoyl)-4-[(1,3,4-thiadiazol-2-yl)amino]phenyl]thiazol-2-yl]cyclohexyl]carbamate]",< 100 nM,–
"CCNS(=O)(=O)c1cc(Nc2cn[nH]c2)ccc1-c1cnc([C@H]2CC[C@H](NC(=O)OC(C)C)CC2)s1 [Compound 120, isopropyl trans-N-[4-[5-[2-(ethylsulfamoyl)-4-[(1H-pyrazol-4-yl)amino]phenyl]thiazol-2-yl]cyclohexyl]carbamate]",< 100 nM,–
"CCNS(=O)(=O)c1cc(Nc2ccn[nH]2)ccc1-c1cnc([C@H]2CC[C@H](NC(=O)OC(C)C)CC2)s1 [Compound 121, isopropyl trans-N-[4-[5-[2-(ethylsulfamoyl)-4-[(1H-pyrazol-5-yl)amino]phenyl]thiazol-2-yl]cyclohexyl]carbamate]",< 100 nM,–
"CCNS(=O)(=O)c1cc(Nc2cnccn2)ccc1-c1cnc([C@H]2CC[C@H](NC(=O)OC(C)C)CC2)s1 [Compound 122, isopropyl trans-N-[4-[5-[2-(ethylsulfamoyl)-4-[(pyrazin-2-yl)amino]phenyl]thiazol-2-yl]cyclohexyl]carbamate]",< 100 nM,–
"CCNS(=O)(=O)c1cc(Nc2cccnn2)ccc1-c1cnc([C@H]2CC[C@H](NC(=O)OC(C)C)CC2)s1 [Compound 123, isopropyl trans-N-[4-[5-[2-(ethylsulfamoyl)-4-[(pyridazin-3-yl)amino]phenyl]thiazol-2-yl]cyclohexyl]carbamate]",< 100 nM,–
"CCNS(=O)(=O)c1cc(Nc2ccncn2)ccc1-c1cnc([C@H]2CC[C@H](NC(=O)OC(C)C)CC2)s1 [Compound 124, isopropyl trans-N-[4-[5-[2-(ethylsulfamoyl)-4-[(pyrimidin-4-yl)amino]phenyl]thiazol-2-yl]cyclohexyl]carbamate]",< 100 nM,–
"CCNS(=O)(=O)c1cc(Nc2ccncc2)ccc1-c1cnc([C@H]2CC[C@H](NC(=O)OC(C)C)CC2)s1 [Compound 125, isopropyl trans-N-[4-[5-[2-(ethylsulfamoyl)-4-[(pyridin-4-yl)amino]phenyl]thiazol-2-yl]cyclohexyl]carbamate]",< 100 nM,–
"CCNS(=O)(=O)c1cc(Nc2ccccn2)ccc1-c1cnc([C@H]2CC[C@H](NC(=O)OC(C)C)CC2)s1 [Compound 126, isopropyl trans-N-[4-[5-[2-(ethylsulfamoyl)-4-[(pyridin-2-yl)amino]phenyl]thiazol-2-yl]cyclohexyl]carbamate]",< 100 nM,–
"CCNS(=O)(=O)c1cc(Nc2ncccn2)ccc1-c1cnc([C@H]2CC[C@H](NC(=O)OC(C)C)CC2)s1 [Compound 127, isopropyl trans-N-[4-[5-[2-(ethylsulfamoyl)-4-[(pyrimidin-2-yl)amino]phenyl]thiazol-2-yl]cyclohexyl]carbamate]",100 to 1000 nM,–
"CCNS(=O)(=O)c1cc(Nc2cccnc2)ccc1-c1cnc([C@H]2CC[C@H](NC(=O)OC(C)C)CC2)s1 [Compound 128, isopropyl trans-N-[4-[5-[2-(ethylsulfamoyl)-4-[(pyridin-3-yl)amino]phenyl]thiazol-2-yl]cyclohexyl]carbamate]",< 100 nM,–
"CCNS(=O)(=O)c1cc(Nc2ccnn2C(C)C)ccc1-c1cnc([C@H]2CC[C@H](NC(=O)OC(C)C)CC2)s1 [Compound 129, isopropyl trans-N-[4-[5-[2-(ethylsulfamoyl)-4-[(1-isopropyl-1H-pyrazol-5-yl)amino]phenyl]thiazol-2-yl]cyclohexyl]carbamate]",< 100 nM,–
"CCNS(=O)(=O)c1cc(N2CCC(O)CC2)ccc1-c1cnc([C@H]2CC[C@H](NC(=O)OC(C)C)CC2)s1 [Compound 130, isopropyl trans-N-[4-[5-[2-(ethylsulfamoyl)-4-[4-hydroxypiperidin-1-yl]phenyl]thiazol-2-yl]cyclohexyl]carbamate]",100 to 1000 nM,–
"CCNS(=O)(=O)c1cc(N(C)CCO)ccc1-c1cnc(C2CCC(NC(=O)OC(C)C)CC2)s1 (stereo not drawn) [Compound 131, isopropyl trans-N-[4-[5-[2-(ethylsulfamoyl)-4-[(2-hydroxyethyl) (methyl))amino]phenyl]thiazol-2-yl]cyclohexyl]carbamate]",< 100 nM,–
"CCNS(=O)(=O)c1cc(N(C)CCOC)ccc1-c1cnc(C2CCC(NC(=O)OC(C)C)CC2)s1 (stereo not drawn) [Compound 132, isopropyl trans-N-[4-[5-[2-(ethylsulfamoyl)-4-[(2-methoxyethyl) (methyl))amino]phenyl]thiazol-2-yl]cyclohexyl]carbamate]",100 to 1000 nM,–
"CCNS(=O)(=O)c1cc(N2CCS(=O)(=O)CC2)ccc1-c1cnc([C@H]2CC[C@H](NC(=O)OC(C)C)CC2)s1 [Compound 133, isopropyl trans-N-[4-[5-[2-(ethylsulfamoyl)-4-[1,1-dioxidothiomorpholino]phenyl]thiazol-2-yl]cyclohexyl]carbamate]",1000 to 10000 nM,–
"CCNS(=O)(=O)c1cc(N2CCOCC2)ccc1-c1cnc([C@H]2CC[C@H](NC(=O)OC(C)C)CC2)s1 [Compound 134, isopropyl trans-N-[4-[5-[2-(ethylsulfamoyl)-4-[morpholino]phenyl]thiazol-2-yl]cyclohexyl]carbamate]",100 to 1000 nM,–
"CCNS(=O)(=O)c1cc(N2CCCCC2)ccc1-c1cnc([C@H]2CC[C@H](NC(=O)OC(C)C)CC2)s1 [Compound 135, isopropyl trans-N-[4-[5-[2-(ethylsulfamoyl)-4-[piperidin-1-yl]phenyl]thiazol-2-yl]cyclohexyl]carbamate]",100 to 1000 nM,–
"CCNS(=O)(=O)c1cc(Nc2ccnc(C(C)C)n2)ccc1-c1cnc([C@H]2CC[C@H](NC(=O)OC(C)C)CC2)s1 [Compound 136, isopropyl trans-N-[4-[5-[2-(ethylsulfamoyl)-4-[(2-isopropylpyrimidin-4-yl)amino]phenyl]thiazol-2-yl]cyclohexyl]carbamate]",< 100 nM,–
"CCNS(=O)(=O)c1cc(NC2COC2)ccc1-c1cnc([C@H]2CC[C@H](NC(=O)OC(C)C)CC2)s1 [Compound 137, isopropyl trans-N-[4-[5-[2-(ethylsulfamoyl)-4-[(oxetan-3-yl)amino]phenyl]thiazol-2-yl]cyclohexyl]carbamate]",< 100 nM,–
"CCNS(=O)(=O)c1cc(Nc2cncn2C(C)C)ccc1-c1cnc([C@H]2CC[C@H](NC(=O)OC(C)C)CC2)s1 [Compound 138, isopropyl trans-N-[4-[5-[2-(ethylsulfamoyl)-4-[(3-isopropylimidazol-4-yl)amino]phenyl]thiazol-2-yl]cyclohexyl]carbamate]",100 to 1000 nM,–
"CCNS(=O)(=O)c1cc(Nc2cn(C(C)C)cn2)ccc1-c1cnc([C@H]2CC[C@H](NC(=O)OC(C)C)CC2)s1 [Compound 139, isopropyl trans-N-[4-[5-[2-(ethylsulfamoyl)-4-[(1-isopropyl-1H-imidazol-4-yl)amino]phenyl]thiazol-2-yl]cyclohexyl]carbamate]",< 100 nM,–
"CCNS(=O)(=O)c1cc(Nc2cncc(C(C)C)n2)ccc1-c1cnc([C@H]2CC[C@H](NC(=O)OC(C)C)CC2)s1 [Compound 140, isopropyl trans-N-[4-[5-[2-(ethylsulfamoyl)-4-[(6-isopropylpyrazin-2-yl)amino]phenyl]thiazol-2-yl]cyclohexyl]carbamate]",100 to 1000 nM,–
"CCNS(=O)(=O)c1cc(Nc2ncc(C)[nH]2)ccc1-c1cnc([C@H]2CC[C@H](NC(=O)OC(C)C)CC2)s1 [Compound 141, isopropyl trans-N-[4-[5-[2-(ethylsulfamoyl)-4-[(5-methyl-1H-imidazol-2-yl)amino]phenyl]thiazol-2-yl]cyclohexyl]carbamate]",–,1000 to 10000 nM
"CCNS(=O)(=O)c1cc(Nc2ncc(C(C)C)[nH]2)ccc1-c1cnc([C@H]2CC[C@H](NC(=O)OC(C)C)CC2)s1 [Compound 142, isopropyl trans-N-[4-[5-[2-(ethylsulfamoyl)-4-[(5-isopropyl-1H-imidazol-2-yl)amino]phenyl]thiazol-2-yl]cyclohexyl]carbamate]",1000 to 10000 nM,–
